The values that follow come from ChEMBL document CHEMBL1201862, “PubChem BioAssay data set” (2004).

Some test systems named below: A549; COLO 205; EKVX; HCC 2998; HCT-116; IGROV-1; KM-20L2; M14; MOLT-4; SF-268; SF-295; SK-MEL-28; SNB-19; M19-MEL; NCI-H226; SNB-75; TK-10; SN12C; DU-145; PC-3.
Common to all, as to experiment: DTP human tumour cell line panel, 48 h

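Tested at 5 concentrations; 48 h exposure; 96-well plates; endpoints linearly interpolated, else capped at highest concentration. Here, GI50 denotes the concentration required for 50% inhibition of growth.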 The source made the active and inactive calls. Cut-off read from the data, not from the text of the source: active = GI50 up to about 1.1 µM and inactive = higher.

By GI50 is commonly meant the concentration that inhibits growth by half. In the case of `CC1=C(Cl)C=CP(=O)(Oc2ccccc2)C1` (centres undefined), the GI50 is 38.8 µM (inactive) in the assay on A549; 27.6 µM (inactive) with COLO 205; > 100 µM (inactive) with EKVX; > 100 µM (inactive) in the assay on HCC 2998; 30.8 µM (inactive) with HCT-116; > 100 µM (inactive) with IGROV-1. The GI50 in the assay on KM-20L2 is > 100 µM (inactive); in the assay with M14, 19.1 µM (inactive); in the assay with MOLT-4 it was > 10 µM (inactive); in the assay with SF-268 it was 29.1 µM (inactive); in the assay with SF-295, > 100 µM (inactive); in the assay on SK-MEL-28 it was 26.4 µM (inactive). Also, the GI50 with SNB-19 is > 100 µM (inactive).

`C=CCN1C(=O)NC(=O)/C(=C/c2c3ccccc3cc3ccccc23)C1=O`: the GI50 in the assay with A549 is 21 µM (inactive); with COLO 205, 19.9 µM (inactive); in the assay on EKVX, 25.5 µM (inactive); in the assay with HCC 2998, 14.8 µM (inactive); in the assay on HCT-116, 17.1 µM (inactive); with IGROV-1, > 10 µM (inactive). Further, the GI50 with M14 is 16.2 µM (inactive); in the assay on M19-MEL, 34.4 µM (inactive); with MOLT-4, 17.9 µM (inactive); in the assay with NCI-H226, 26.3 µM (inactive); in the assay with SF-268, 24.5 µM (inactive); with SF-295, 17.4 µM (inactive). Besides, the GI50 in the assay on SK-MEL-28 is 22.4 µM (inactive); in the assay with SNB-19, 21.8 µM (inactive); in the assay with SNB-75, 21.3 µM (inactive); in the assay with TK-10 it was 20 µM (inactive).

On to `COc1cc(OC)c2c(O)cc(CC(C)O)cc2c1` (centres undefined), for which the GI50 in the assay with A549, in the assay with COLO 205, in the assay with EKVX, in the assay with HCC 2998, in the assay with HCT-116 and with IGROV-1 was > 100 µM (inactive) each time. For the same compound, the GI50 with KM-20L2, in the assay with M14, with M19-MEL, in the assay on MOLT-4, in the assay on SF-268 and in the assay with SF-295 was > 100 µM (inactive) throughout. The GI50 with SK-MEL-28, with SN12C, with SNB-19, with SNB-75 and in the assay with TK-10 was > 100 µM (inactive) in each case.

Regarding `COc1cccc2c1C(=O)c1c(O)c3c(c(O)c1C2=O)C[C@](O)(C(=O)CO)CC3OC1CC(N)C(OC2CCCCO2)C(C)O1` (some centres undefined), the GI50 with A549 is < 0.01 µM (active); in the assay with COLO 205, 0.329 µM (active); with EKVX it was 0.916 µM (active); in the assay with HCC 2998, 0.621 µM (active); with HCT-116 it was 0.0659 µM (active); with IGROV-1, 0.424 µM (active). The concentration for 50% growth inhibition (GI50) was 0.624 µM (active) with KM-20L2; < 0.01 µM (active) with MOLT-4; 0.0805 µM (active) with NCI-H226; 0.293 µM (active) with SF-268; 0.0483 µM (active) in the assay with SF-295; 1.4 µM (inactive) in the assay with SK-MEL-28. For the same compound, the concentration for 50% growth inhibition (GI50) was 0.148 µM (active) with SN12C, 0.0948 µM (active) in the assay with SNB-19 and 0.243 µM (active) in the assay with SNB-75.

In the case of `COc1cccc2c1C(=O)c1c(O)c3c(c(O)c1C2=O)C[C@@](O)(C(=O)CO)CC3OC1CC(NCCCC(OC(C)=O)OC(C)=O)C(O)C(C)O1` (some centres undefined), the GI50 is 0.00333 µM (active) in the assay with A549; 0.00277 µM (active) in the assay with EKVX; 0.00228 µM (active) in the assay on HCC 2998; 0.006 µM (active) in the assay with IGROV-1; 0.000912 µM (active) in the assay with KM-20L2; 0.000867 µM (active) with M14. In addition, the concentration for 50% growth inhibition (GI50) in the assay on M19-MEL was 0.00261 µM (active); in the assay with MOLT-4, 0.00224 µM (active); with NCI-H226, 0.00153 µM (active); with SF-268, 0.00305 µM (active); in the assay on SF-295, 0.00147 µM (active); in the assay with SK-MEL-28 it was 0.00259 µM (active). The GI50 is 0.00152 µM (active) in the assay with SN12C, 0.00246 µM (active) in the assay with SNB-19, 0.0015 µM (active) with SNB-75 and 0.00641 µM (active) with TK-10.

Regarding `COc1ccc(C(c2ccccc2)(c2ccc(OC)cc2)N2C(=O)NC3C(CCCCC(=O)NCCCCCCOP(OCCC#N)N(C(C)C)C(C)C)SCC32)cc1` (centres undefined), the GI50 in the assay with A549 is 20.3 µM (inactive); with COLO 205, 21.6 µM (inactive); in the assay with EKVX, 21.5 µM (inactive); in the assay with HCC 2998 it was 16.6 µM (inactive); in the assay with HCT-116 it was 12 µM (inactive); with IGROV-1 it was 18.7 µM (inactive). Moreover, the GI50 was 17.1 µM (inactive) in the assay with KM-20L2; 18.4 µM (inactive) in the assay with M14; 16.8 µM (inactive) in the assay with M19-MEL; 7.57 µM (inactive) with MOLT-4; 15 µM (inactive) in the assay with NCI-H226; 15.2 µM (inactive) in the assay with SF-268. Besides, the figures for the GI50 in the assay with SF-295, with SK-MEL-28 and in the assay with TK-10 were 17.1 µM (inactive), 15 µM (inactive) and 18 µM (inactive), respectively.

For `CCCCN(CCCC)C(=O)C(=O)C(C(=O)c1ccc(OC)cc1)c1ccc(OC)cc1` (centres undefined), the GI50 with A549, in the assay with COLO 205, with EKVX, in the assay with HCC 2998, in the assay with HCT-116 and in the assay with IGROV-1 was > 100 µM (inactive) in each case. Further, the GI50 was > 100 µM (inactive) with KM-20L2; 92.3 µM (inactive) in the assay with M14; > 100 µM (inactive) in the assay on MOLT-4; > 100 µM (inactive) in the assay with NCI-H226; > 100 µM (inactive) in the assay on SF-268; > 100 µM (inactive) in the assay with SF-295. Also, the GI50 with SK-MEL-28, with SN12C, in the assay with SNB-19 and in the assay with TK-10 was > 100 µM (inactive) in each case.

Take `CN(C(=O)c1ccco1)C(=S)N1CCN(c2ccccn2)CC1`: the GI50 with A549, with COLO 205, in the assay with HCT-116, in the assay with IGROV-1, with KM-20L2 and in the assay with M14 was > 100 µM (inactive) in each case. The GI50 in the assay with M19-MEL, with MOLT-4, with NCI-H226, with SF-268, in the assay with SF-295 and in the assay on SK-MEL-28 was > 100 µM (inactive) each time. The GI50 in the assay on SN12C, with SNB-19, with SNB-75 and in the assay on TK-10 was > 100 µM (inactive) throughout.

In the case of `C[C@]12CC[C@H](O)CC1=CC[C@@H]1[C@@H]2CC[C@]2(C)NC(=O)/C(=C\c3ccccc3)C[C@@H]12`, the GI50 with A549 is 14.6 µM (inactive); with COLO 205, 16 µM (inactive); with DU-145, 16.4 µM (inactive); in the assay with EKVX it was 14 µM (inactive); in the assay with HCC 2998, 13.4 µM (inactive); in the assay on HCT-116, 14.2 µM (inactive). Besides, the GI50 with IGROV-1 is 15.9 µM (inactive); in the assay with M14, 15.8 µM (inactive); with MOLT-4, 26.5 µM (inactive); with NCI-H226 it was 14.9 µM (inactive); with PC-3 it was 13.3 µM (inactive); in the assay with SF-268, 15.5 µM (inactive). The GI50 was 16.5 µM (inactive) with SF-295; 16.7 µM (inactive) with SK-MEL-28; 23 µM (inactive) with SN12C; 14.7 µM (inactive) in the assay with SNB-19; 19.6 µM (inactive) with SNB-75; 28.2 µM (inactive) with TK-10.

For the compound `CCOC(=O)c1nc2ccccc2nc1Nc1ccc(F)cc1`, the GI50 in the assay on A549 is 50.9 µM (inactive); in the assay on COLO 205 it was > 100 µM (inactive); in the assay on DU-145, 42.2 µM (inactive); in the assay on EKVX, 16.5 µM (inactive); with HCC 2998 it was > 100 µM (inactive); in the assay on HCT-116, 20.3 µM (inactive). For the same compound, the GI50 in the assay on IGROV-1 is 13.7 µM (inactive); in the assay on M14, > 100 µM (inactive); in the assay on MOLT-4, > 100 µM (inactive); in the assay on NCI-H226, 17.9 µM (inactive); with PC-3, > 86.9 µM (inactive); in the assay on SF-268 it was 8.39 µM (inactive). Further, the GI50 in the assay on SF-295 was 12.9 µM (inactive); with SK-MEL-28, > 100 µM (inactive); in the assay on SN12C it was 40.6 µM (inactive); in the assay with SNB-19, 12.1 µM (inactive); in the assay on SNB-75 it was 3.52 µM (inactive); in the assay with TK-10 it was 30.6 µM (inactive).

For `NC(=O)c1ncn(Cc2ccccc2)c1CNC(N)=S`, the GI50 in the assay on A549, with COLO 205, in the assay with EKVX, with HCC 2998, with IGROV-1 and in the assay with M14 was > 100 µM (inactive) in each case. Also, the GI50 in the assay on M19-MEL, in the assay on MOLT-4, with NCI-H226, in the assay on SF-268, in the assay with SF-295 and in the assay with SK-MEL-28 was > 100 µM (inactive) throughout. The GI50 was > 100 µM (inactive) with SN12C, > 100 µM (inactive) with SNB-19, 91.4 µM (inactive) in the assay on SNB-75 and > 100 µM (inactive) in the assay on TK-10.

For `C=CC(=O)C#Cc1cnc(OC)nc1OC`, the GI50 with A549 was 59 µM (inactive); in the assay on COLO 205, 3.83 µM (inactive); in the assay with DU-145 it was 37.2 µM (inactive); in the assay on EKVX, 24.4 µM (inactive); in the assay with HCC 2998 it was 19 µM (inactive); with HCT-116, 9.59 µM (inactive). Besides, the GI50 in the assay on IGROV-1 was 22.9 µM (inactive); in the assay with M14, 14.9 µM (inactive); in the assay on MOLT-4, 1.69 µM (inactive); in the assay with NCI-H226 it was > 48.5 µM (inactive); in the assay on PC-3, 19.8 µM (inactive); with SF-268, 30.1 µM (inactive). Moreover, the GI50 is 41.4 µM (inactive) in the assay on SF-295; 10.4 µM (inactive) in the assay on SK-MEL-28; 18.7 µM (inactive) in the assay with SN12C; 19.1 µM (inactive) in the assay on SNB-19; 12.6 µM (inactive) in the assay on SNB-75; 15.6 µM (inactive) with TK-10.
